Data as given in patent US20220386606A1, “SPECIFICALLY SUBSTITUTED 3-PHENYL-5-SPIROCYCLOPENTYL-3-PYRROLIN-2-ONES AND THEIR USE AS HERBICIDES” (Bayer Aktiengesellschaft, priority 2019, published 2022).

Key:
AVEFA [1] = assay: Post-emergence herbicidal action against AVEFA; assay type: in vivo, Avena fatua; settings: 80 g/ha, visual assessment after about 3 weeks
Method in brief: (§1)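 Sow in sandy loam and grow in the greenhouse for 2 to 3 weeks to the one-leaf stage. Spray the compound as an aqueous suspension or emulsion with 0.2% wetting agent, 600 to 800 l/ha water rate. Hold about 3 weeks, then score damage visually versus controls.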

DIGSA [2] = assay: Post-emergence herbicidal action against DIGSA; assay type: in vivo, Digitaria sanguinalis; settings: 80 g/ha, visual assessment about 3 weeks after treatment vs untreated controls
Method in brief: as §1

DIGSA [3] = assay: Pre-emergence herbicidal action against DIGSA; assay type: in vivo, Digitaria sanguinalis; settings: 320 g/ha, scored visually after 3 weeks vs untreated controls
Method in brief: (§2)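 Scoring is visual, 3 weeks post-application, on a 0 to 100% scale relative to untreated controls (100% = plants died). Treatment is pre-emergence: aqueous suspensions or emulsions applied to the covering soil at 600 to 800 L/ha with 0.2% wetting agent.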

ECHCG [4] = assay: Post-emergence herbicidal action against ECHCG; assay type: in vivo, Echinochloa crus-galli; settings: 80 g/ha, visual assessment about 3 weeks after treatment vs untreated controls
Method in brief: as §1

LOLRI [5] = assay: Post-emergence herbicidal action against LOLRI; assay type: in vivo, Lolium rigidum; settings: 80 g/ha, visual assessment about 3 weeks after treatment vs untreated controls
Method in brief: as §1

ALOMY [6] = assay: Post-emergence herbicidal action against ALOMY; assay type: in vivo, Alopecurus myosuroides; settings: 80 g/ha, visual assessment after about 3 weeks
Method in brief: as §1

ECHCG [7] = assay: Pre-emergence herbicidal action against ECHCG; assay type: in vivo, Echinochloa crus-galli; settings: 320 g/ha, scored visually after 3 weeks vs untreated controls
Method in brief: as §2

ABUTH [8] = assay: Post-emergence herbicidal action against ABUTH; assay type: in vivo, Abutylon threophrasti; settings: 80 g/ha, visual assessment about 3 weeks after treatment vs untreated controls
Method in brief: as §1

AMARE [9] = assay: Pre-emergence herbicidal action against AMARE; assay type: in vivo, Amaranthus retroflexus; settings: 320 g/ha
Method in brief: as §2

SETVI [10] = assay: Pre-emergence herbicidal action against SETVI; assay type: in vivo, Setaria viridis; settings: 320 g/ha, scored visually after 3 weeks vs untreated controls
Method in brief: as §2

ALOMY [11] = assay: Pre-emergence herbicidal action against ALOMY; assay type: in vivo, Alopecurus myosuroides; settings: 320 g/ha, scored visually after 3 weeks vs untreated controls
Method in brief: as §2

LOLRI [12] = assay: Pre-emergence herbicidal action against LOLRI (Table 8, titled post-emergence at 320 g/ha); assay type: in vivo, Lolium rigidum; settings: table stands in the pre-emergence section
Method in brief: as §2

VIOTR = assay: Pre-emergence herbicidal action against VIOTR; assay type: in vivo, Viola tricolor; settings: 320 g/ha
Method in brief: as §2

AVEFA [13] = assay: Pre-emergence herbicidal action against AVEFA; assay type: in vivo, Avena fatua; settings: 320 g/ha, scored visually after 3 weeks vs untreated controls
Method in brief: as §2

ABUTH [14] = assay: Pre-emergence herbicidal action against ABUTH; assay type: in vivo, Abutylon threophrasti; settings: 320 g/ha
Method in brief: as §2

AMARE [15] = assay: Post-emergence herbicidal action against AMARE; assay type: in vivo, Amaranthus retroflexus; settings: 80 g/ha, visual assessment about 3 weeks after treatment vs untreated controls
Procedure: (§3) Seeds of monocotyledonous and dicotyledonous weed and crop plants are laid out in sandy loam soil in wood-fiber pots, covered with soil and cultivated in a greenhouse under good growth conditions. 2 to 3 weeks after sowing, the test plants are treated at the one-leaf stage. The compounds of the invention, formulated in the form of wettable powders (WP) or as emulsion concentrates (EC), are then sprayed onto the green parts of the plants as aqueous suspension or emulsion at a water application rate equating to 600 to 800 l/ha with addition of 0.2% wetting agent. After the test plants have been left to stand in the greenhouse under optimal growth conditions for about 3 weeks, the action of the preparations is assessed visually in comparison to untreated controls (herbicidal action in percent (%): 100% activity=the plants have died, 0% activity=like control plants).

VERPE [16] = assay: Pre-emergence herbicidal action against VERPE; assay type: in vivo, Veronica persica; settings: 320 g/ha
Method in brief: as §2

VERPE [17] = assay: Post-emergence herbicidal action against VERPE; assay type: in vivo, Veronica persica; settings: 80 g/ha, visual assessment about 3 weeks after treatment vs untreated controls
Procedure: as §3

SETVI [18] = assay: Post-emergence herbicidal action against SETVI; assay type: in vivo, Setaria viridis; settings: 80 g/ha, visual assessment about 3 weeks after treatment vs untreated controls
Method in brief: as §1

MATIN = assay: Pre-emergence herbicidal action against MATIN; assay type: in vivo; settings: 320 g/ha
Method in brief: as §2

POLCO = assay: Pre-emergence herbicidal action against POLCO; assay type: in vivo, Polygonum convolvulus; settings: 320 g/ha
Method in brief: as §2

HORMU = assay: Post-emergence herbicidal action against HORMU; assay type: in vivo, Hordeum murinum; settings: 80 g/ha, visual assessment about 3 weeks after treatment vs untreated controls
Method in brief: as §1

Row | SMILES | Post-emergence action against AVEFA in % (AVEFA [1]) | Post-emergence action against DIGSA in % (DIGSA [2]) | Pre-emergence action against DIGSA in % (DIGSA [3]) | Post-emergence action against ECHCG in % (ECHCG [4]) | Post-emergence action against LOLRI in % (LOLRI [5]) | Post-emergence action against ALOMY in % (ALOMY [6]) | Pre-emergence action against ECHCG in % (ECHCG [7]) | Post-emergence action against ABUTH in % (ABUTH [8]) | Pre-emergence action against AMARE in % (AMARE [9]) | Pre-emergence action against SETVI in % (SETVI [10]) | Pre-emergence action against ALOMY in % (ALOMY [11]) | Pre-emergence herbicidal action against LOLRI in % (LOLRI [12]) | Pre-emergence action against VIOTR in % (VIOTR) | Pre-emergence action against AVEFA in % (AVEFA [13]) | Pre-emergence action against ABUTH in % (ABUTH [14]) | Pre-emergence action against VERPE in % (VERPE [16]) | Post-emergence action against VERPE in % (VERPE [17]) | Post-emergence action against SETVI in % (SETVI [18]) | Pre-emergence action against MATIN in % (MATIN) | Pre-emergence action against POLCO in % (POLCO) | also measured
1 | CC#Cc1cc(C)c(C2=C(OC(=O)C(C)C)C3(CCC(COC)C3)NC2=O)c(F)c1 (stereo not shown) [Example P-58] | 90% | 100% | 100% | 100% | 100% | 100% | 100% | 80% | 90% | 100% | 100% | 100% | 100% | 90% | 80% | – | – | – | – | – | Post-emergence action against AMARE in % (AMARE [15]): 80%
2 | CC#Cc1cc(C)c(C2=C(O)C3(CCC(COCCC)C3)NC2=O)c(Cl)c1 (stereo not shown) [Example I-71] | 80% | 90% | 100% | 90% | 90% | 90% | 100% | – | – | 100% | 100% | 100% | 100% | 80% | – | 90% | 80% | 100% | 90% | – | –
3 | CC#Cc1cc(C)c(C2=C(OC(=O)C(C)C)C3(CCC(COCC)C3)NC2=O)c(Cl)c1 (stereo not shown) [Example P-29] | 90% | 100% | 100% | 100% | 100% | 100% | 100% | – | 100% | 100% | 100% | 100% | 100% | 100% | 80% | 100% | 80% | 100% | 90% | 90% | –
4 | CC#Cc1cc(C)c(C2=C(OC(=O)OCC)C3(CCC(COCC)C3)NC2=O)c(Cl)c1 (stereo not shown) [Example P-28] | 90% | 100% | 100% | 100% | 100% | 100% | 100% | – | 100% | 100% | 100% | 100% | 100% | 100% | 90% | 100% | 80% | 100% | 90% | 80% | –
5 | C=CCOCC1CCC2(C1)NC(=O)C(c1c(C)cc(C#CC)cc1Cl)=C2O (stereo not shown) [Example I-44] | 80% | 100% | 100% | 100% | 80% | 100% | 90% | – | 100% | 100% | 100% | 100% | 100% | 90% | 80% | 80% | – | 100% | 80% | 100% | Post-emergence action against AMARE in % (AMARE [15]): 80%
6 | CC#Cc1cc(C)c(C2=C(OC(=O)OCC)C3(CCC(COC)C3)NC2=O)c(Br)c1 (stereo not shown) [Example P-31] | 100% | 100% | 100% | 100% | 100% | 90% | 100% | – | 100% | 100% | 100% | 100% | 100% | 100% | 90% | 90% | – | 100% | – | 90% | Post-emergence action against AMARE in % (AMARE [15]): 80%
7 | CC#Cc1cc(C)c(C2=C(OC(=O)OCC)C3(CCC(COCC)C3)NC2=O)c(F)c1 (stereo not shown) [Example P-54] | 100% | 100% | 100% | 100% | 100% | 100% | 100% | 80% | 100% | 100% | 100% | 100% | 100% | 90% | – | 80% | 80% | – | – | 80% | –
8 | CC#Cc1cc(Cl)c(C2=C(OC(=O)OCC)C3(CCC(COCC)C3)NC2=O)c(CC)c1 (stereo not shown) [Example P-21] | 100% | 100% | – | 100% | 100% | 100% | – | – | – | – | – | – | – | – | – | – | 80% | 100% | – | – | Post-emergence action against HORMU in % (HORMU): 100%
9 | CC#Cc1cc(C)c(C2=C(O)C3(CCC(COCC)C3)NC2=O)c(OC)c1 (stereo not shown) [Example I-30] | 80% | 100% | 100% | 100% | 100% | 90% | 100% | 80% | 100% | 100% | 100% | 100% | 100% | 90% | – | – | 80% | – | 90% | – | –
